Results published in patent US9770026B2, “Substituted pyrimidine compound and uses thereof” (Shenyang Sinochem Agrochemicals R&D Co., Ltd., priority 2012, dated 2017).

What was measured:
[1] = system: Green peach aphids (Myzus Persicae Sulzer); test: bioactivity test against green peach aphid, airbrush foliar spray; format: in vivo
Summary of the method: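 Aphids (15-30 per cabbage leaf disc) on moist filter paper were airbrush-sprayed at 10 psi, 0.5 mL, with compound from acetone:methanol (1:1) diluted in water with 0.1% tween 80. Held at 25±1 C, 60±5% RH; survivors counted after 48 hrs to give death rates.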

[2] = system: wheat powdery mildew; test: protectant activity in vivo against wheat powdery mildew
[3] = system: corn rust; test: protectant activity in vivo against corn rust
[4] = system: armyworm; test: bioactivity test against armyworm, airbrush spray; format: in vivo
[5] = system: carmine spider mite; test: bioactivity test against carmine spider mite, airbrush spray; format: in vivo
Summary of the method: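 Broadbean seedlings infested with adult mites were sprayed with compound (acetone/methanol stock diluted in 0.1% Tween 80 water) by airbrush at 0.7 kg/cm^2, 0.5 ml. Three replicates were run. Mortality was scored after 72 hrs.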

[6] = system: Diamond back moth; test: insecticidal activity against diamond back moth, airbrush spray; format: in vivo
Summary of the method: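 Airbrush leaf-disc spray test: both faces of 2 cm cabbage discs received 0.5 ml of test solution at 0.7 kg/cm^2. Solutions were made in acetone:methanol (1:1) and brought to concentration with 0.1% Tween 80 in water. Ten second-instar larvae per disc, triplicates, were held at 25° C and 60˜70% R.H., with mortality recorded at 72 hrs.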

[7] = 10 ppm, death rate after 48 hrs
[8] = 100 ppm, death rate after 48 hrs
[9] = 600 ppm, death rate after 48 hrs
[10] = 100 ppm, mortality after 72 hrs
[11] = 600 ppm, mortality after 72 hrs
[12] = 2.5 ppm, death rate after 48 hrs

Cc1ncnc(NCCc2ccc(Oc3ccc(C(F)(F)F)cn3)cc2)c1Cl [Compound I-6735]
Insecticidal activity against peach aphid (%) ([1]; 1.25 mg/L, contrastive test): 67% | Insecticidal activity against peach aphid (%) ([1]; 2.5 mg/L, contrastive test): 80% | Insecticidal activity against peach aphid (%) ([1]; 5 mg/L, contrastive test): 100% | Insecticidal activity against peach aphid (%) ([1]; 10 mg/L, contrastive test): 100% | Insecticidal activity against peach aphid (%) ([1]; 100 mg/L, contrastive test): 100% | Insecticidal activity against peach aphid (%) ([1]; 600 mg/L, contrastive test): 100% | control (test results against green peach aphid) ([1]; 5 ppm, death rate after 48 hrs): 100% | control (test results against green peach aphid) [1, 7]: 100% | control (test results against green peach aphid) [1, 8]: 100% | control (test results against green peach aphid) [1, 9]: 100% | protectant activity against wheat powdery mildew in vivo ([2]; 400 ppm): 100% | protectant activity against corn rust in vivo ([3]; 100 ppm): 100% | protectant activity against corn rust in vivo ([3]; 400 ppm): 100% | control (test results against armyworm) ([4]; 600 ppm, mortality after 72 h): 100% | control against carmine spider mite [5, 10]: 100% | control against carmine spider mite [5, 11]: 100% | control (test results against diamond back moth) [6, 11]: 100%

CCc1ncnc(NCCc2ccc(Oc3ccc(C(F)(F)F)cn3)cc2)c1Cl.Cl [Compound I-6739]
control (test results against green peach aphid) [1, 12]: 100% | control (test results against green peach aphid) ([1]; 5 ppm, death rate after 48 hrs): 100% | pest or weed control at 1.25 µg/mL ([1]; Myzus persicae, foliar, 48 h, 1.25 mg/L, contrastive test, read-out: Insecticidal activity against peach aphid (%)): 100% | pest or weed control at 2.5 µg/mL ([1]; Myzus persicae, foliar, 48 h, 2.5 mg/L, contrastive test, read-out: Insecticidal activity against peach aphid (%)): 100% | pest or weed control at 5 µg/mL ([1]; Myzus persicae, foliar, 48 h, 5 mg/L, contrastive test, read-out: Insecticidal activity against peach aphid (%)): 100% | pest or weed control at 10 µg/mL ([1]; Myzus persicae, foliar, 48 h, 10 mg/L, contrastive test, read-out: Insecticidal activity against peach aphid (%)): 100% | pest or weed control at 100 µg/mL ([1]; Myzus persicae, foliar, 48 h, 100 mg/L, contrastive test, read-out: Insecticidal activity against peach aphid (%)): 100% | pest or weed control at 600 µg/mL ([1]; Myzus persicae, foliar, 48 h, 600 mg/L, contrastive test, read-out: Insecticidal activity against peach aphid (%)): 100% | pest or weed control at 10 ppm ([1]; Myzus persicae, foliar, 48 h, 10 ppm, death rate after 48 hrs): 100% | pest or weed control at 100 ppm ([1]; Myzus persicae, foliar, 48 h, 100 ppm, death rate after 48 hrs): 100% | pest or weed control at 600 ppm ([1]; Myzus persicae, foliar, 48 h, 600 ppm, death rate after 48 hrs): 100% | protectant activity against wheat powdery mildew in vivo ([2]; 25 ppm): 100% | pest or weed control at 6.25 ppm ([2]; Triticum aestivum, 168 h, read-out: protectant activity against wheat powdery mildew in vivo, 6.25 ppm): 80 to 99% | pest or weed control at 100 ppm ([2]; Triticum aestivum, 168 h, read-out: protectant activity against wheat powdery mildew in vivo, 100 ppm): 100% | pest or weed control at 400 ppm ([2]; Triticum aestivum, 168 h, read-out: protectant activity against wheat powdery mildew in vivo, 400 ppm): 100% | pest or weed control at 100 ppm ([3]; Zea mays, 168 h, read-out: protectant activity against corn rust in vivo, 100 ppm): 100% | pest or weed control at 400 ppm ([3]; Zea mays, 168 h, read-out: protectant activity against corn rust in vivo, 400 ppm): 100% | control (test results against armyworm) ([4]; 100 ppm, mortality after 72 h): 100% | pest or weed control at 600 ppm ([4]; 72 h, 600 ppm, mortality after 72 h): 100% | Insecticidal activity against carmine spider mite (% ) ([5]; 2.5 mg/L): 76% | Insecticidal activity against carmine spider mite (% ) ([5]; 5 mg/L): 93% | Insecticidal activity against carmine spider mite (% ) ([5]; 10 mg/L, contrastive test): 100% | Insecticidal activity against carmine spider mite (% ) ([5]; 100 mg/L, contrastive test): 100% | Insecticidal activity against carmine spider mite (% ) ([5]; 600 mg/L, contrastive test): 100% | control against carmine spider mite ([5]; 10 ppm, mortality after 72 hrs): 100% | pest or weed control at 100 ppm ([5]; Tetranychus cinnabarinus, 72 h, 100 ppm, mortality after 72 hrs): 100% | pest or weed control at 600 ppm ([5]; Tetranychus cinnabarinus, 72 h, 600 ppm, mortality after 72 hrs): 100% | control (test results against diamond back moth) [6, 10]: 100% | pest or weed control at 600 ppm ([6]; 72 h, 600 ppm, mortality after 72 hrs, read-out: control (test results against diamond back moth)): 100%

CCc1ncnc(NCCc2ccc(Oc3ccc(C(F)(F)F)cn3)cc2)c1Cl [Compound I-6756]
Insecticidal activity against peach aphid (%) ([1]; 1.25 mg/L, contrastive test): 100% | Insecticidal activity against peach aphid (%) ([1]; 2.5 mg/L, contrastive test): 100% | Insecticidal activity against peach aphid (%) ([1]; 5 mg/L, contrastive test): 100% | Insecticidal activity against peach aphid (%) ([1]; 10 mg/L, contrastive test): 100% | Insecticidal activity against peach aphid (%) ([1]; 100 mg/L, contrastive test): 100% | Insecticidal activity against peach aphid (%) ([1]; 600 mg/L, contrastive test): 100% | control (test results against green peach aphid) [1, 12]: 100% | control (test results against green peach aphid) ([1]; 5 ppm, death rate after 48 hrs): 100% | control (test results against green peach aphid) [1, 7]: 100% | control (test results against green peach aphid) [1, 8]: 100% | control (test results against green peach aphid) [1, 9]: 100% | protectant activity against wheat powdery mildew in vivo ([2]; 100 ppm): 100% | protectant activity against wheat powdery mildew in vivo ([2]; 400 ppm): 100% | protectant activity against corn rust in vivo ([3]; 100 ppm): 100% | protectant activity against corn rust in vivo ([3]; 400 ppm): 100% | Insecticidal activity against armyworm (%) ([4]; 10 mg/L): 28% | Insecticidal activity against armyworm (%) ([4]; 100 mg/L): 100% | Insecticidal activity against armyworm (%) ([4]; 600 mg/L): 100% | control (test results against armyworm) ([4]; 100 ppm, mortality after 72 h): 100% | control (test results against armyworm) ([4]; 600 ppm, mortality after 72 h): 100% | Insecticidal activity against carmine spider mite (% ) ([5]; 2.5 mg/L): 71% | Insecticidal activity against carmine spider mite (% ) ([5]; 5 mg/L): 88% | Insecticidal activity against carmine spider mite (% ) ([5]; 10 mg/L, contrastive test): 100% | Insecticidal activity against carmine spider mite (% ) ([5]; 100 mg/L, contrastive test): 100% | Insecticidal activity against carmine spider mite (% ) ([5]; 600 mg/L, contrastive test): 100% | control against carmine spider mite ([5]; 10 ppm, mortality after 72 hrs): 100% | control against carmine spider mite [5, 10]: 100% | control against carmine spider mite [5, 11]: 100% | control (test results against diamond back moth) [6, 10]: 100% | control (test results against diamond back moth) [6, 11]: 100%

CCc1ncnc(NCCc2ccc(Oc3ccc(C(F)(F)F)cn3)cc2)c1Cl [Compound I-6757]
Insecticidal activity against peach aphid (%) ([1]; 1.25 mg/L, contrastive test): 100% | Insecticidal activity against peach aphid (%) ([1]; 2.5 mg/L, contrastive test): 100% | Insecticidal activity against peach aphid (%) ([1]; 5 mg/L, contrastive test): 100% | Insecticidal activity against peach aphid (%) ([1]; 10 mg/L, contrastive test): 100% | Insecticidal activity against peach aphid (%) ([1]; 100 mg/L, contrastive test): 100% | Insecticidal activity against peach aphid (%) ([1]; 600 mg/L, contrastive test): 100% | control (test results against green peach aphid) [1, 12]: 100% | control (test results against green peach aphid) [1, 7]: 100% | control (test results against green peach aphid) [1, 8]: 100% | control (test results against green peach aphid) [1, 9]: 100% | pest or weed control at 5 ppm ([1]; Myzus persicae, foliar, 48 h, 5 ppm, death rate after 48 hrs): 100% | protectant activity against wheat powdery mildew in vivo ([2]; 100 ppm): 100% | protectant activity against wheat powdery mildew in vivo ([2]; 400 ppm): 100% | protectant activity against corn rust in vivo ([3]; 100 ppm): 100% | protectant activity against corn rust in vivo ([3]; 400 ppm): 100% | control (test results against armyworm) ([4]; 100 ppm, mortality after 72 h): 100% | control (test results against armyworm) ([4]; 600 ppm, mortality after 72 h): 100% | pest or weed control at 10 µg/mL ([4]; 72 h, 10 mg/L, read-out: Insecticidal activity against armyworm (%)): 28% | pest or weed control at 100 µg/mL ([4]; 72 h, 100 mg/L, read-out: Insecticidal activity against armyworm (%)): 100% | pest or weed control at 600 µg/mL ([4]; 72 h, 600 mg/L, read-out: Insecticidal activity against armyworm (%)): 100% | Insecticidal activity against carmine spider mite (% ) ([5]; 2.5 mg/L): 75% | Insecticidal activity against carmine spider mite (% ) ([5]; 5 mg/L): 80% | control against carmine spider mite [5, 10]: 100% | control against carmine spider mite [5, 11]: 100% | pest or weed control at 10 µg/mL ([5]; Tetranychus cinnabarinus, 72 h, 10 mg/L, contrastive test, read-out: Insecticidal activity against carmine spider mite (% )): 97% | pest or weed control at 100 µg/mL ([5]; Tetranychus cinnabarinus, 72 h, 100 mg/L, contrastive test, read-out: Insecticidal activity against carmine spider mite (% )): 100% | pest or weed control at 600 µg/mL ([5]; Tetranychus cinnabarinus, 72 h, 600 mg/L, contrastive test, read-out: Insecticidal activity against carmine spider mite (% )): 100% | control (test results against diamond back moth) [6, 10]: 100% | control (test results against diamond back moth) [6, 11]: 100%

Cc1ncnc(NCCc2ccc(Oc3ccc(Cl)cc3)cc2)c1Cl [II-19]
Insecticidal activity against peach aphid (%) ([1]; 10 mg/L, contrastive test): 100% | Insecticidal activity against peach aphid (%) ([1]; 100 mg/L, contrastive test): 100% | Insecticidal activity against peach aphid (%) ([1]; 600 mg/L, contrastive test): 100% | control (test results against green peach aphid) [1, 7]: 100% | control (test results against green peach aphid) [1, 8]: 100% | control (test results against green peach aphid) [1, 9]: 100% | protectant activity against wheat powdery mildew in vivo ([2]; 400 ppm): 100% | protectant activity against corn rust in vivo ([3]; 400 ppm): 100% | control (test results against armyworm) ([4]; 600 ppm, mortality after 72 h): 100% | control against carmine spider mite [5, 10]: 100% | control against carmine spider mite [5, 11]: 100% | Insecticidal activity against diamond back moth (%) ([6]; 10 mg/L): 50% | Insecticidal activity against diamond back moth (%) ([6]; 100 mg/L): 100% | Insecticidal activity against diamond back moth (%) ([6]; 600 mg/L): 100% | control (test results against diamond back moth) [6, 10]: 100% | control (test results against diamond back moth) [6, 11]: 100%
